What all share (experiment): In vitro cell growth inhibition assay (MTT)
Assay type in all cases: cell-based, human

One assay relates to SKOV3. Conditions: SK-OV-3; SKOV-3 human ovarian cancer cell line, 48 h, MTT; read-out: IC50 SKOV3. The protocol:
(§1) 5000 tumor cells per well were seeded into 96-well plate and allowed to adhere overnight. Cells were treated with various concentrations of tested compounds or DMSO (0.2%, as negative control) for 48 h. Then, the medium along with tested compounds or DMSO was discarded and […] per well MTT containing medium (0.5 mg/mL) was added. After incubation at 37° C. for 4 h, the MTT-containing medium was replaced by DMSO (150 μL per well) to dissolve the formazan crystals. Absorbance of the resulting solution was measured by microplate reader (Biotech ELx800) at 540 nm wavelength. Growth inhibition rates were calculated with the absorbance. Half maximal inhibitory concentration (IC50) of each compound was calculated using GraphPad Prism, version 6.0.

Another assay relates to A2780. Conditions: A2780 human ovarian cancer cell line, 48 h, MTT; read-out: IC50 A2780. The protocol: as §1
The subject of the next assay is Hela. Conditions: Hela human cervical cancer cell line, 48 h, MTT; read-out: IC50 Hela. On the procedure:
as §1

The subject of a further assay is MDA-MB-231. Conditions: MDA-MB-231 human breast cancer cell line, 48 h, MTT; read-out: IC50 MDA-MB-231. On the procedure: as §1

Structures are written as SMILES.

Turning to `COc1ccc([C@H]2[C@@H](CNCc3ccccc3)C(=O)N2c2cc(OC)c(OC)c(OC)c2)cc1O` [Compound 63, (3R,4R)-3-((benzylamino)methyl)-4-(3-hydroxy-4-methoxyphenyl)-1-(3,4,5-trimethoxyphenyl)azetidin-2-one], the IC50 stood at 1670 nM in the assay with SKOV3, 1020 nM in the assay on A2780, 2270 nM in the assay with Hela and 1790 nM in the assay on MDA-MB-231.

In the case of `COc1ccc([C@H]2[C@@H](OC(=O)CCC(=O)O)C(=O)N2c2cc(OC)c(OC)c(OC)c2)cc1O` [Compound 64, 4-(((2S,3R)-2-(3-hydroxy-4-methoxyphenyl)-4-oxo-1-(3,4,5-trimethoxyphenyl)azetidin-3-yl)oxy)-4-oxobutanoic acid], the IC50 with SKOV3 was 210 nM; in the assay with A2780, 79 nM; with Hela, 178 nM; in the assay with MDA-MB-231, 102 nM.

On to `CCOC(=O)CO[C@H]1C(=O)N(c2cc(OC)c(OC)c(OC)c2)[C@H]1c1ccc(OC)c(O)c1` [Compound 65, ethyl 2-(((2S,3R)-2-(3-hydroxy-4-methoxyphenyl)-4-oxo-1-(3,4,5-trimethoxyphenyl)azetidin-3-yl)oxy)acetate], for which the half-inhibitory concentration (IC50) in the assay with SKOV3 was found to be 721 nM; in the assay on A2780, 423 nM; in the assay on Hela, 669 nM; in the assay on MDA-MB-231, 672 nM.

Turning to `COc1ccc([C@H]2[C@H](Br)C(=O)N2c2cc(OC)c(OC)c(OC)c2)cc1O` [Compound 66, (3S,4S)-3-bromo-4-(3-hydroxy-4-methoxyphenyl)-1-(3,4,5-trimethoxyphenyl)azetidin-2-one], the half-inhibitory concentration (IC50) with SKOV3 amounted to 9 nM; in the assay on A2780, 8 nM; in the assay with Hela, 13 nM; with MDA-MB-231 it was 10 nM.

With `COc1ccc([C@H]2CC(=O)N2c2cc(OC)c(OC)c(OC)c2)cc1O` [Compound 67, (R)-4-(3-hydroxy-4-methoxyphenyl)-1-(3,4,5-trimethoxyphenyl)azetidin-2-one], the IC50 was 24 nM in the assay on SKOV3, 22 nM with A2780, 30 nM in the assay on Hela and 28 nM in the assay with MDA-MB-231.

`COc1ccc([C@H]2[C@H](NC(C)=O)C(=O)N2c2cc(OC)c(OC)c(OC)c2)cc1O` [Compound 77, N-((2S,3S)-2-(3-hydroxy-4-methoxyphenyl)-4-oxo-1-(3,4,5-trimethoxyphenyl)azetidin-3-yl)acetamide]: the IC50 in the assay with SKOV3 was determined as 32 nM; in the assay with A2780, 33 nM; in the assay with Hela it was 35 nM; in the assay with MDA-MB-231, 47 nM.

Take `COc1ccc([C@H]2[C@H](NC(=O)c3ccccc3)C(=O)N2c2cc(OC)c(OC)c(OC)c2)cc1O` [Compound 78, N-((2S,3S)-2-(3-hydroxy-4-methoxyphenyl)-4-oxo-1-(3,4,5-trimethoxyphenyl)azetidin-3-yl)benzamide]: the IC50 in the assay on SKOV3 amounted to 45 nM; in the assay on A2780, 27 nM; in the assay with Hela it was 24 nM; in the assay with MDA-MB-231, 47 nM.

For the compound `COc1ccc([C@H]2[C@H](NS(C)(=O)=O)C(=O)N2c2cc(OC)c(OC)c(OC)c2)cc1O` [Compound 79, N-((2S,3S)-2-(3-hydroxy-4-methoxyphenyl)-4-oxo-1-(3,4,5-trimethoxyphenyl)azetidin-3-yl)methanesulfonamide], the half-inhibitory concentration (IC50) with SKOV3 came to 231 nM; in the assay on A2780, 164 nM; in the assay on Hela it was 192 nM; in the assay on MDA-MB-231 it was 254 nM.

Take `COc1ccc([C@@H]2N(c3cc(OC)c(OC)c(OC)c3)C(=O)[C@]2(O)CO)cc1O` [Compound 80, (3R,4S)-3-hydroxy-4-(3-hydroxy-4-methoxyphenyl)-3-(hydroxymethyl)-1-(3,4,5-trimethoxyphenyl)azetidin-2-one]: the 50% inhibitory concentration (IC50) was 3000 nM with SKOV3, 1770 nM with A2780, 3420 nM in the assay with Hela and 4470 nM in the assay with MDA-MB-231.

As for `COC[C@@]1(OC)C(=O)N(c2cc(OC)c(OC)c(OC)c2)[C@H]1c1ccc(OC)c(O)c1` [Compound 81, (3R,4S)-4-(3-hydroxy-4-methoxyphenyl)-3-methoxy-3-(methoxymethyl)-1-(3,4,5-trimethoxyphenyl)azetidin-2-one], the concentration for half-maximal inhibition (IC50) in the assay with SKOV3 is 2470 nM; in the assay with A2780, 1750 nM; with Hela it was 2560 nM; with MDA-MB-231, 2650 nM.

Take `C=C1C(=O)N(c2cc(OC)c(OC)c(OC)c2)[C@H]1c1cccc(O)c1` [Compound 85, (S)-4-(3-hydroxyphenyl)-3-methylene-1-(3,4,5-trimethoxyphenyl)azetidin-2-one]: the IC50 in the assay with SKOV3 amounted to 14500 nM; in the assay with A2780, 10500 nM; with Hela, 15000 nM; in the assay on MDA-MB-231 it was 6640 nM.

For the compound `C=C1C(=O)N(c2cc(OC)c(OC)c(OC)c2)[C@H]1c1cccc(OC)c1` [Compound 86, (S)-4-(3-methoxyphenyl)-3-methylene-1-(3,4,5-trimethoxyphenyl)azetidin-2-one], the IC50 in the assay on SKOV3 is 8180 nM; with A2780, 2290 nM; in the assay on Hela it was 12300 nM; in the assay on MDA-MB-231, 6320 nM.

Consider `C=C1C(=O)N(c2cc(OC)c(OC)c(OC)c2)[C@H]1c1ccc(C)cc1` [Compound 87, (S)-3-methylene-4-(p-tolyl)-1-(3,4,5-trimethoxyphenyl)azetidin-2-one], for which the IC50 in the assay on SKOV3 was determined as 265 nM; with A2780, 127 nM; in the assay on Hela, 209 nM; in the assay on MDA-MB-231 it was 193 nM.

In the case of `C=C1C(=O)N(c2cc(OC)c(OC)c(OC)c2)[C@H]1c1ccc(C(C)C)cc1` [Compound 88, (S)-4-(4-isopropylphenyl)-3-methylene-1-(3,4,5-trimethoxyphenyl)azetidin-2-one], the IC50 in the assay on SKOV3 was found to be 2470 nM; in the assay with A2780 it was 2120 nM; in the assay on Hela, 2210 nM; in the assay with MDA-MB-231 it was 2550 nM.

Consider `C=C1C(=O)N(c2cc(OC)c(OC)c(OC)c2)[C@H]1c1ccc(OC)c(OC(=O)c2ccc(OC)cc2)c1` [Compound 96, (S)-2-methoxy-5-(3-methylene-4-oxo-1-(3,4,5-trimethoxyphenyl)azetidin-2-yl)phenyl 4-methoxybenzoate], for which the IC50 in the assay on SKOV3 worked out at 258 nM; in the assay with A2780, 125 nM; in the assay on Hela, 139 nM; in the assay with MDA-MB-231, 284 nM.

As for `C=C1C(=O)N(c2cc(OC)c(OC)c(OC)c2)[C@@H]1c1ccc(OC)c(O)c1` [Compound 98, (R)-4-(3-hydroxy-4-methoxyphenyl)-3-methylene-1-(3,4,5-trimethoxyphenyl)azetidin-2-one], the IC50 in the assay on SKOV3, with A2780, in the assay with Hela and in the assay on MDA-MB-231 was greater than 20000 nM throughout.

For the compound `COc1ccc([C@@H]2[C@H](C)C(=O)N2c2cc(OC)c(OC)c(OC)c2)cc1O` [Compound 101, (3S,4S)-4-(3-hydroxy-4-methoxyphenyl)-3-methyl-1-(3,4,5-trimethoxyphenyl)azetidin-2-one], the IC50 in the assay with SKOV3 stood at 3270 nM; with A2780, 5750 nM; with Hela, 3920 nM; in the assay with MDA-MB-231, 5140 nM.

For the compound `COc1ccc([C@@H]2[C@@H](C)C(=O)N2c2cc(OC)c(OC)c(OC)c2)cc1O` [Compound 102, (3R,4S)-4-(3-hydroxy-4-methoxyphenyl)-3-methyl-1-(3,4,5-trimethoxyphenyl)azetidin-2-one], the IC50 in the assay on SKOV3 was determined as 650 nM; with A2780, 771 nM; with Hela it was 807 nM; in the assay on MDA-MB-231, 1080 nM.

On to `COc1ccc([C@H]2[C@@H](C)C(=O)N2c2cc(OC)c(OC)c(OC)c2)cc1N` [Compound 103, (3R,4R)-4-(3-amino-4-methoxyphenyl)-3-methyl-1-(3,4,5-trimethoxyphenyl)azetidin-2-one], for which the IC50 in the assay on SKOV3 came to 77 nM; in the assay with A2780, 78 nM; in the assay with Hela, 61 nM; in the assay with MDA-MB-231 it was 81 nM.

On to `COc1ccc([C@H]2[C@H](C)C(=O)N2c2cc(OC)c(OC)c(OC)c2)cc1N` [Compound 104, (3S,4R)-4-(3-amino-4-methoxyphenyl)-3-methyl-1-(3,4,5-trimethoxyphenyl)azetidin-2-one], for which the IC50 in the assay on SKOV3 came out at 25 nM; in the assay with A2780, 20 nM; in the assay on Hela, 37 nM; with MDA-MB-231 it was 32 nM.

In the case of `COc1ccc([C@@H]2N(c3cc(OC)c(OC)c(OC)c3)C(=O)C23CC3)cc1O` [Compound 105, (S)-6-(3-hydroxy-4-methoxyphenyl)-5-(3,4,5-trimethoxyphenyl)-5-azaspiro[2.3]hexan-4-one], the IC50 was found to be 388 nM with SKOV3, 302 nM with A2780, 436 nM in the assay with Hela and 326 nM with MDA-MB-231.

In the case of `CC[C@H]1C(=O)N(c2cc(OC)c(OC)c(OC)c2)[C@H]1c1ccc(OC)c(O)c1` [Compound 106, (3R,4R)-3-ethyl-4-(3-hydroxy-4-methoxyphenyl)-1-(3,4,5-trimethoxyphenyl)azetidin-2-one], the IC50 in the assay on SKOV3 amounted to 215 nM; in the assay on A2780 it was 250 nM; in the assay on Hela it was 320 nM; in the assay on MDA-MB-231, 286 nM.

As for `C=C1C(=O)N(c2cc(OC)c(OC)c(OC)c2)[C@H]1c1ccc(OC)c(OS(=O)(=O)F)c1` [Compound 107, (S)-2-methoxy-5-(3-methylene-4-oxo-1-(3,4,5-trimethoxyphenyl)azetidin-2-yl)phenyl sulfofluoridate], the IC50 in the assay on SKOV3 came to 178 nM; in the assay with A2780, 121 nM; in the assay on Hela it was 174 nM; in the assay with MDA-MB-231, 216 nM.

What is called IC50 is the concentration at which inhibition is half-maximal.

The values are drawn from patent publication US20200392150A1, “Diaryl-B-Lactam Compound and Preparation Method and Pharmaceutical Use Thereof” (Fudan University, priority 2016, published 2020).
